Assay results taken from the NIST ThermoML archive (doi:10.1021/je050288d).
Numbers after ± are expanded uncertainties.

Settings: Gas

O [water]
Settings | viscosity [mPa·s]
297.39 K, Mass density=0.0402 kg/m3 | 0.009665 ± 9.5e-05
297.88 K, Mass density=0.0668 kg/m3 | 0.009654 ± 9.5e-05
298.02 K, Mass density=0.0247 kg/m3 | 0.009675 ± 9.5e-05
298.08 K, Mass density=0.0368 kg/m3 | 0.009683 ± 9.5e-05
298.17 K, Mass density=0.1654 kg/m3 | 0.009693 ± 9.5e-05
298.3 K, Mass density=0.0186 kg/m3 | 0.0097 ± 9.5e-05
298.38 K, Mass density=0.1081 kg/m3 | 0.009686 ± 9.5e-05
298.57 K, Mass density=0.1973 kg/m3 | 0.009684 ± 9.5e-05
299.06 K, Mass density=0.0793 kg/m3 | 0.009709 ± 9.5e-05
300.07 K, Mass density=0.2351 kg/m3 | 0.009725 ± 9.5e-05
310.8 K, Mass density=0.0186 kg/m3 | 0.01013 ± 9.8e-05
310.87 K, Mass density=0.0368 kg/m3 | 0.01013 ± 9.8e-05
310.96 K, Mass density=0.0668 kg/m3 | 0.01011 ± 9.8e-05
311.24 K, Mass density=0.1654 kg/m3 | 0.01014 ± 9.8e-05
311.3 K, Mass density=0.0793 kg/m3 | 0.01013 ± 9.8e-05
311.39 K, Mass density=0.1081 kg/m3 | 0.01013 ± 9.8e-05
311.45 K, Mass density=0.0402 kg/m3 | 0.01015 ± 9.8e-05
311.77 K, Mass density=0.0247 kg/m3 | 0.01015 ± 9.8e-05
312.25 K, Mass density=0.2351 kg/m3 | 0.01014 ± 9.8e-05
313.01 K, Mass density=0.1973 kg/m3 | 0.01017 ± 9.8e-05
324.45 K, Mass density=0.0668 kg/m3 | 0.01059 ± 0.0001
324.54 K, Mass density=0.0247 kg/m3 | 0.0106 ± 0.0001
324.54 K, Mass density=0.1654 kg/m3 | 0.0106 ± 0.0001
324.74 K, Mass density=0.2351 kg/m3 | 0.01058 ± 0.0001
325 K, Mass density=0.0402 kg/m3 | 0.01062 ± 0.0001
325.15 K, Mass density=0.1973 kg/m3 | 0.01059 ± 0.0001
325.42 K, Mass density=0.1081 kg/m3 | 0.01062 ± 0.0001
325.96 K, Mass density=0.0368 kg/m3 | 0.01065 ± 0.0001
331.18 K, Mass density=0.0186 kg/m3 | 0.01083 ± 0.0001
331.47 K, Mass density=0.0793 kg/m3 | 0.01084 ± 0.0001
338.02 K, Mass density=0.1973 kg/m3 | 0.01103 ± 0.0001
338.38 K, Mass density=0.2351 kg/m3 | 0.01105 ± 0.0001
338.47 K, Mass density=0.0247 kg/m3 | 0.01108 ± 0.0001
338.71 K, Mass density=0.0368 kg/m3 | 0.0111 ± 0.0001
338.79 K, Mass density=0.0793 kg/m3 | 0.01108 ± 0.0001
338.83 K, Mass density=0.0186 kg/m3 | 0.01111 ± 0.0001
339.39 K, Mass density=0.0402 kg/m3 | 0.01112 ± 0.0001
340.17 K, Mass density=0.1081 kg/m3 | 0.01113 ± 0.0001
341.28 K, Mass density=0.0668 kg/m3 | 0.01117 ± 0.0001
352.03 K, Mass density=0.1973 kg/m3 | 0.01153 ± 0.00011
352.05 K, Mass density=0.1654 kg/m3 | 0.01154 ± 0.00011
352.17 K, Mass density=0.0668 kg/m3 | 0.01156 ± 0.00011
352.37 K, Mass density=0.2351 kg/m3 | 0.01154 ± 0.00011
352.75 K, Mass density=0.0186 kg/m3 | 0.0116 ± 0.00011
352.77 K, Mass density=0.0402 kg/m3 | 0.0116 ± 0.00011
352.79 K, Mass density=0.0793 kg/m3 | 0.01159 ± 0.00011
352.91 K, Mass density=0.0247 kg/m3 | 0.0116 ± 0.00011
353.16 K, Mass density=0.1081 kg/m3 | 0.0116 ± 0.00011
353.6 K, Mass density=0.0368 kg/m3 | 0.01163 ± 0.00011
365.86 K, Mass density=0.2351 kg/m3 | 0.01203 ± 0.00011
366.29 K, Mass density=0.1973 kg/m3 | 0.01205 ± 0.00011
366.37 K, Mass density=0.0247 kg/m3 | 0.01209 ± 0.00011
366.48 K, Mass density=0.1654 kg/m3 | 0.01207 ± 0.00011
366.77 K, Mass density=0.1081 kg/m3 | 0.01209 ± 0.00011
366.96 K, Mass density=0.0793 kg/m3 | 0.01211 ± 0.00011
367.03 K, Mass density=0.0402 kg/m3 | 0.01212 ± 0.00011
367.1 K, Mass density=0.0668 kg/m3 | 0.0121 ± 0.00011
367.84 K, Mass density=0.0186 kg/m3 | 0.01216 ± 0.00011
368.22 K, Mass density=0.0368 kg/m3 | 0.01216 ± 0.00011
380.42 K, Mass density=0.0247 kg/m3 | 0.0126 ± 0.00011
380.43 K, Mass density=0.1973 kg/m3 | 0.01257 ± 0.00011
380.59 K, Mass density=0.0668 kg/m3 | 0.01259 ± 0.00011
380.6 K, Mass density=0.1654 kg/m3 | 0.01258 ± 0.00011
380.8 K, Mass density=0.0186 kg/m3 | 0.01263 ± 0.00011
381.09 K, Mass density=0.0402 kg/m3 | 0.01263 ± 0.00011
381.09 K, Mass density=0.0793 kg/m3 | 0.01263 ± 0.00011
381.33 K, Mass density=0.1081 kg/m3 | 0.01263 ± 0.00011
381.7 K, Mass density=0.2351 kg/m3 | 0.01262 ± 0.00011
382.14 K, Mass density=0.0368 kg/m3 | 0.01268 ± 0.00011
393.95 K, Mass density=0.1654 kg/m3 | 0.01309 ± 0.00012
394.29 K, Mass density=0.0668 kg/m3 | 0.0131 ± 0.00012
394.39 K, Mass density=0.0186 kg/m3 | 0.01314 ± 0.00012
394.43 K, Mass density=0.1973 kg/m3 | 0.0131 ± 0.00012
394.48 K, Mass density=0.2351 kg/m3 | 0.01311 ± 0.00012
394.72 K, Mass density=0.0247 kg/m3 | 0.01313 ± 0.00012
395 K, Mass density=0.1081 kg/m3 | 0.01314 ± 0.00012
395.38 K, Mass density=0.0402 kg/m3 | 0.01316 ± 0.00012
395.87 K, Mass density=0.0793 kg/m3 | 0.01319 ± 0.00012
396.61 K, Mass density=0.0368 kg/m3 | 0.01322 ± 0.00012
408.3 K, Mass density=0.1654 kg/m3 | 0.01365 ± 0.00012
408.32 K, Mass density=0.0668 kg/m3 | 0.01364 ± 0.00012
408.34 K, Mass density=0.2351 kg/m3 | 0.01365 ± 0.00012
408.76 K, Mass density=0.1973 kg/m3 | 0.01366 ± 0.00012
408.87 K, Mass density=0.0186 kg/m3 | 0.01369 ± 0.00012
409.37 K, Mass density=0.1081 kg/m3 | 0.01369 ± 0.00012
409.39 K, Mass density=0.0793 kg/m3 | 0.0137 ± 0.00012
409.46 K, Mass density=0.0402 kg/m3 | 0.01369 ± 0.00012
409.76 K, Mass density=0.0247 kg/m3 | 0.01371 ± 0.00012
411.18 K, Mass density=0.0368 kg/m3 | 0.01379 ± 0.00012
422.56 K, Mass density=0.2351 kg/m3 | 0.01421 ± 0.00012
422.69 K, Mass density=0.1654 kg/m3 | 0.01422 ± 0.00012
422.72 K, Mass density=0.0668 kg/m3 | 0.0142 ± 0.00012
422.75 K, Mass density=0.0247 kg/m3 | 0.01422 ± 0.00012
422.94 K, Mass density=0.1973 kg/m3 | 0.01422 ± 0.00012
423.26 K, Mass density=0.0186 kg/m3 | 0.01424 ± 0.00012
423.44 K, Mass density=0.0793 kg/m3 | 0.01425 ± 0.00012
423.62 K, Mass density=0.1081 kg/m3 | 0.01425 ± 0.00012
423.7 K, Mass density=0.0402 kg/m3 | 0.01426 ± 0.00012
423.8 K, Mass density=0.0368 kg/m3 | 0.01428 ± 0.00012
437.27 K, Mass density=0.2351 kg/m3 | 0.01482 ± 0.00013
437.71 K, Mass density=0.1654 kg/m3 | 0.01483 ± 0.00013
437.84 K, Mass density=0.1973 kg/m3 | 0.01484 ± 0.00013
438.04 K, Mass density=0.0668 kg/m3 | 0.01481 ± 0.00013
438.05 K, Mass density=0.1081 kg/m3 | 0.01483 ± 0.00013
438.48 K, Mass density=0.0368 kg/m3 | 0.01487 ± 0.00013
438.71 K, Mass density=0.0793 kg/m3 | 0.01486 ± 0.00013
438.77 K, Mass density=0.0186 kg/m3 | 0.01485 ± 0.00013
438.99 K, Mass density=0.0402 kg/m3 | 0.01486 ± 0.00013
440.41 K, Mass density=0.0247 kg/m3 | 0.01492 ± 0.00013
